From paper PMC9728195, “Purification and Characterization of Anabaena flos-aquae Phenylalanine Ammonia-Lyase as a Novel Approach for Myristicin Biotransformation” (Journal of Microbiology and Biotechnology, 2019)

Legend:
[1] = tested on: T1, PAL from Anabaena flos-aquae (A. flos-aquae PAL); experiment: forward deamination assay, cinnamic acid absorbance at […] nm; format: biochemical, Dolichospermum flosaquae; details: Tris-HCl pH 8.9; standard assay at 37 °C
T1 construct: native enzyme purified from algal culture (acetone precipitation, Sephadex G-200, DEAE-cellulose); 64 kDa band on SDS-PAGE

[2] = tested on: T2, PAL from Spirulina platensis (S. platensis PAL); experiment: as above; format: biochemical, Limnospira platensis; details: Tris-HCl pH 8.9; standard assay at 37 °C
T2 construct: native enzyme purified from algal culture (acetone precipitation, Sephadex G-200, DEAE-cellulose); 64 kDa band on SDS-PAGE

[3] = tested on: T1, PAL from Anabaena flos-aquae (A. flos-aquae PAL); experiment: reverse hydroamination assay, L-phenylalanine formation at […] nm; format: biochemical, Dolichospermum flosaquae; details: co-substrate NH4OH (stock 5 M); Tris-HCl pH 8.9; standard assay at 37 °C
[4] = tested on: T2, PAL from Spirulina platensis (S. platensis PAL); experiment: as above; format: biochemical, Limnospira platensis; details: co-substrate NH4OH (stock 5 M); Tris-HCl pH 8.9 (standard assay); 37 °C

For `N[C@@H](Cc1ccccc1)C(=O)O` [L-phenylalanine], the Km [1] was 1500 µM and the Km [2] was 1640 µM.

`O=C(O)/C=C/c1ccccc1` [trans-cinnamic acid] showed a Km [3] of 300 µM and a Km [4] of 610 µM.
